Patent US20050215548A1 (Cyclacel Limited, priority 2002, published 2005)
Like-named read-outs stand apart in the source and are kept apart here. One block for each compound: values may come before it.

Key:
AGS [1] = experiment: Combination treatment with cisplatin or etoposide, MTT, AGS; format: cell-based, human; details: MTT, 72 hours
Excerpt: (§1) It is well established that radiotherapy and most current forms of chemotherapy cause extensive genetic damage and induction of the p53-dependent apoptotic pathway, which determines the important role of this tumor suppressor protein in cancer therapy. HDM2, on the other hand, as a transcriptional product and negative regulator pf p53, would destabilise p53 and diminish its pro-apoptotic function. Inhibitors of the p53-HDM2 negative feedback loop (e.g. compounds disrupting the p53-HDM2 complex) are expected to synergise with cytotoxic agents for induction of p53 and subsequent apoptosis. […] Both chemotherapeutic agents were used in the concentration range of 100-0.19 μM.

SJSA-1 = experiment: Combination treatment with cisplatin or etoposide, MTT, SJSA-1; format: cell-based, human; details: MTT, 72 hours
Excerpt: as §1

MCF7 or H1299 cells = experiment: Cell cycle distribution, propidium iodide flow cytometry; format: cell-based, human; details: 5 times IC50
Experimental: Cells were stained with propidium iodide and the cell cycle position was determined using a flow cytometer.

H1299 = experiment: Combination treatment with cisplatin or etoposide, MTT, H1299; format: cell-based, human; details: 72 hours
Excerpt: as §1

[2] = test system: key proteins in the HDM2 pathway; experiment: SDS-PAGE and immunoblotting of key proteins in the HDM2 pathway; format: cell-based, human; details: for changes in protein levels and cell morphology: negative control: MCF7, 13.5 μM, 68/69: MCF7 and H1299 at five times IC50 of 69, 49: AGS, SJSA1, H1299
Excerpt: Equal amounts of cell lysate were separated by SDS-PAGE and analysed by immunoblotting using the indicated antibodies. An estimation of the extent of cell rounding is indicated above each lane. […] (B) The effect of compound 2 on the levels of the cell cycle proteins in AGS cells (wild-type 53). […] Equal amounts of cell lysate were separated by SDS-PAGE and analysed by immunoblotting using the indicated antibodies. An estimation of the extent of cell rounding is indicated above each lane. (C) The effect of negative control compound (refer Example 10), compound 2, cisplatin, and anisomycin on the levels of key proteins in MCF7 cells. […] Cisplatinum and anisomycin (a transcription inhibitor) treatments were with 50 μM or 37 μM, respectively. Cells were harvested at various time points; afterwards lysates were prepared and separated by SDS-PAGE and analysed by immunoblotting. The proteins detected are indicated. The extent of rounded or floating cells and the percentage viable cells were assessed. […] Equal amounts of cell lysate were separated by SDS-PAGE and analysed by immunoblotting using a range of antibodies. An estimation of the extent of cell rounding is indicated above each lane. […] SJSA1 cells were treated with 5 times [IC50] of compound 2 and collected at the indicated time points. Equal amounts of cell lysate were separated by SDS-PAGE and analysed by immunoblotting using a range of antibodies. An estimation of the extent of cell rounding is indicated above each lane.
Many types of cellular stress converge on the p53 pathway and induce its activity. […] The biological effect of bisarylsufonamides on cellular level was studies using representative compounds (mainly compound 2) and number of cell lines with different HDM2 and p53 status. These were overexpressing Hdm2 (SJSA1—osteosarcoma), wild type p53 and normal levels of HDM2 (AGS—gastric adenocarcinoma, MCF7—breast adenocarcinoma), or p53 null, low levels of HDM2 (H1299—large cell lung carcinoma).
Cells were lysed and equal amounts were analysed by SDS-polyacrylamide gel electrophoresis (SDS-PAGE) and immunoblotting.

HDM2 [3] = target: T1, HDM2 (Homo sapiens, UniProt Q00987); experiment: Fluorescence polarisation competitive HDM2 binding assay
T1 construct: Recombinant HDM2 (1.5 μg per well) in TBS-BSA buffer
T1 sequence (Q00987 whole entry): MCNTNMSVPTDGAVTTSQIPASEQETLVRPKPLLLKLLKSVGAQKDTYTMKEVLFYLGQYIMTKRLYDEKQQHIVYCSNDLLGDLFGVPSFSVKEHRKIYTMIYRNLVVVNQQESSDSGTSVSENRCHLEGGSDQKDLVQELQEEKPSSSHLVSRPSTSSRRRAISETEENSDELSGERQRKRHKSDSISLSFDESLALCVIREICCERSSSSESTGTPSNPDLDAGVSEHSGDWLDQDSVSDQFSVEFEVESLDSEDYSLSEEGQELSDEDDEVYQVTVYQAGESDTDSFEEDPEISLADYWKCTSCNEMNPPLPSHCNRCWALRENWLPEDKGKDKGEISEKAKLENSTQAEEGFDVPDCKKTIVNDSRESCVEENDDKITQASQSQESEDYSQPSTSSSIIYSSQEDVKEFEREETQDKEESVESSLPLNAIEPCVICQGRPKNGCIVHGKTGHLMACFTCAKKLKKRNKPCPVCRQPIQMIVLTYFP
How it was run: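 Recombinant HDM2 (1.5 μg/well) was preincubated 5 min at room temperature with serially diluted compound in 50 mM Tris pH 7.4, 150 mM NaCl, 0.1% BSA, 5% DMSO final. Fluorescein-labelled p53 peptide (0.2 μM) was then added for 45 min. Polarisation was read at 485/520 nm and IC50 derived from dose-response curves.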

AGS [4] = experiment: 72-h MTT cytotoxicity assay, AGS; format: cell-based; details: Homo sapiens, 72-h MTT, Table 1, read-out: IC50 Anti-proliferative effect on cell line AGS
Experimental: The fluorescence polarisation competitive HDM2 binding assay described in Example 3 was used. Furthermore, the anti-proliferative potency of the compounds against three human tumour cell lines with different genetic make-up was also determined. […] The cell lines used were as follows: AGS, gastric adenocarcinoma, wild-type p53; H1299, large cell lung carcinoma, p53 null, low HDM2; SJSA-1, primitive multipotential bone sarcoma, wild-type p53, overexpressed HDM2.
(§2) Representative bisarylsulfonamide compounds were tested on a panel of transformed and non-transformed human cell lines, using a standard 72-h MTT cytotoxicity assay [Haselsberger K et al, ibid].

HDM2 [5] = target: T1, HDM2; details: literature, cited from earlier work; for affinity for HDM2 / inhibition of the p53/HDM2 complex: background
carcinoma cell lines = experiment: 72-h MTT panel, average carcinomas; format: cell-based; details: Homo sapiens, read-out: Anti-proliferative activity, 72-h MTT IC50, Average carcinomas
Experimental: as §2
This differential selectivity further supports the notion that the bisarylsulfonamides modulate cellular HDM2 function. It is known that HDM2 amplification is particularly common in soft tissue sarcomas and osteosarcomas [Momand J et al, ibid; Bartel F, Meye A, Wurl P, Kappler M, Bache M, Lautenschlager C, Grunbaum U, Schmidt H, Taubert H; Int. J. Cancer 2001; 95: 168-175].

[6] = Table 5, read-out: IC50, agent alone
[7] = Homo sapiens, Table 6, read-out: IC50, agent alone

Compound: N.N.[Cl][Pt][Cl] [Cisplatin, reference compound]
- IC50 (AGS [1]; [6]): 3.8 µM
- IC50 (SJSA-1; [6]): 6.1 µM
- cell cycle arrest (MCF7 or H1299 cells): no detectable arrest at any phase of the cell cycle
- sub-G1 cells, indicative of apoptosis (MCF7 or H1299 cells): induced sub-G1 cells
- IC50 (H1299; MTT, Table 5, read-out: IC50, agent alone): 2.9 µM
- p53 level and p53 phosphorylation at serine 15 ([2]; compound 2: AGS, H1299, MCF7 or SJSA1 cells, etoposide or cisplatinum: AGS or MCF7 cells): inducing p53 phosphorylation of serine 15, as well as increasing the p53 and E2F-1 protein levels

- IC50 (HDM2 [3]; text of Example 10, refer Table 1, read-out: competitive inhibition IC50): 431 µM
Compound: O=[N+]([O-])c1ccc(S(=O)(=O)Nc2ccc(Cl)cc2)s1 [Compound 68, 5-Nitro-thiophene-2-sulfonic acid (4-chloro-phenyl)-amide]
- IC50 (AGS [4]): 76 µM
- changes in protein levels and cell morphology [2]: Little change in protein levels

Compound: O=C(O)COc1ccc(C(=O)C=Cc2ccc(Cl)c(Cl)c2)cc1 [Compound B-1, {4-[3-(3,4-dichloro-phenyl)-acryloyl]-phenoxy}-acetic acid]
- affinity for HDM2 / inhibition of the p53/HDM2 complex (HDM2 [5]): high micromolar affinity

- IC50 (AGS [1]; [7]): 0.28 µM
- IC50 (SJSA-1; [7]): 16 µM
- IC50 (H1299; Homo sapiens, NCI-H1299, MTT, Table 6, read-out: IC50, agent alone): 1.3 µM
Compound: COc1cc([C@@H]2c3cc4c(cc3[C@@H](O[C@@H]3O[C@@H]5CO[C@@H](C)O[C@H]5[C@H](O)[C@H]3O)[C@H]3COC(=O)[C@H]23)OCO4)cc(OC)c1O [Etoposide, reference compound]

Compound: CC[C@H](CO)Nc1nc(NCc2ccccc2)c2ncn(C(C)C)c2n1 [Roscovitine, reference compound]
- IC50 (carcinoma cell lines): 11.2 ± 3 µM

- inhibition of the HDM2-p53 interaction in vitro (HDM2 [3]): does not inhibit
Compound: O=S(=O)(NCc1ccc(C(F)(F)F)cc1)c1cc(Br)c(Cl)s1 [negative control compound, 4-bromo-5-chloro-thiophene-2-sulfonic acid 4-trifluoromethyl-benzylamide, reference compound]
- changes in protein levels and cell morphology [2]: did not induce any notable changes in the protein levels tested or cell morphology

Compound: FMDYWEGL
- affinity for HDM2 / inhibition of the p53/HDM2 complex (HDM2 [5]): micromolar affinity

Compound: MPRFMDYWEGLN
- affinity for HDM2 / inhibition of the p53/HDM2 complex (HDM2 [5]): sub-micromolar affinity
- fold more potent than the corresponding wild-type p53-derived peptide (HDM2 [5]; versus 16QETFSDLWKLLF27): 28 fold

Compound: TFSDLW (UniProt P04637 18-23, looked up, fragment) [p53(18-23)]
- affinity for HDM2 / inhibition of the p53/HDM2 complex (HDM2 [5]): little affinity

Compound: chlorofusin
- affinity for HDM2 / inhibition of the p53/HDM2 complex (HDM2 [5]): micromolar inhibitor
